Assay results: publication PMC12147183, “Lacritin cleavage-potentiated targeting of iron - respiratory reciprocity promotes bacterial death” (The Journal of Biological Chemistry, 2025)
Peptide text beside a SMILES is read from it.

Tests used:
[1] = test system: Fe^2+ uptake by PA14; format: cell-based, Pseudomonas aeruginosa
Description: Iron depletion was induced in PA14 cells (5 × 10^9 cfu in 10 ml 10 mM Na2HPO4, 1.8 mM KH2PO4, 2.7 mM KCl, 137 mM NaCl (pH 7.2) by treatment with the chelator 1 mM 2,2′-bipyridyl at room temperature for 1 h. After washing twice with 0.9% NaCl, cells were suspended in 1 ml of 1 mM Na2HPO4, 0.18 mM KH2PO4, 0.27 mM KCl, 13.7 mM NaCl for treatment without or with 1, 10, 25, 50 or 100 μM of N-104 (or negative control N-80/C-25 or C-95) for 45 min at 35 °C, incubated at the same temperature for 15 min with 100 μM FeSO4 and 13 mM ascorbic acid, washed twice with 1 mM Na2HPO4, 0.18 mM KH2PO4, 0.27 mM KCl, and 13.7 mM NaCl, and pelleted at 12,000g. The ferrozine assay ([54]) was subsequently employed. Briefly, cells in pellets were lysed with 20 μl of 50 mM NaOH, partially neutralized with 20 μl of 10 mM HCl, subjected to iron release with 20 μl of acidified 0.29 M KMnO4 for 30 min at 80 °C, cooled to room temperature, incubated with 7 μl of 30 mM ferrozine, 1.1 μl of 180 mM neocuproine, 15 μl of 5 M ammonium acetate and 15 μl of 1 M ascorbic acid for 30 min at room temperature and then centrifuged at 21,000g for 10 min. Cellular iron uptake could then be assessed from the supernatant OD565. Single-molecule transport per cell was estimated using a standard curve.

[2] = Surface plasmon resonance on chip-supported Gram-negative model membrane
[3] = test system: PA14 transcriptome; experiment: RNAseq of N-104 treated PA14; format: cell-based, Pseudomonas aeruginosa; conditions: 20 μM N-104 versus N-80/C-25, 45 min at 35 °C, 5 × 10^8 cfu/ml
Description: For RNA extraction and sequencing of P. aeruginosa, we used diethylpyrocarbonate (DEPC) treated Eppendorf tubes (except for those used for synthetic peptide incubation). An aliquot of PA14 overnight culture grown for 3.5 to 4.0 h in LB broth to OD600 = 0.5 (5.0 × 10^8 cells) was gently pelleted (12,000g, 30 s), resuspended in 0.5 ml of 1 mM Na2HPO4, 0.18 mM KH2PO4, 0.27 mM KCl, 13.7 mM NaCl (pH 7.2) and incubated with five or 20 μM N-104, or 20 μM N-80/C-25 for 45 min at 35 °C or left untreated. After pelleting (12,000g, 5 min), cells were resuspended in 0.5 ml of TE buffer supplemented with 1 ml of RNA-protect Bacteria Reagent with 5 s of vortexing prior to incubation for 5 min at room temperature, pelleting (5000g, 10 min), and lysis initiated in 200 μl of 15 mg/ml lysozyme together with 20 μl of 2.5 mg/ml proteinase K, both in TE buffer. […] Library construction and sequencing were performed by UVA's Genome Analysis and Technology Core involving mRNA enrichment via the NEBNext rRNA Depletion Kit (Bacteria), and transcriptome sequencing on a Next Seq 500 Mid Output platform, with 150-bp paired-end reads. The range of raw reads for each sample varied from 8 to 10 million, thus ensuring an optimal depth of sequencing that was analyzed by UVA's Bioinformatics Core facility.

[4] = test system: P. aeruginosa PA14; experiment: SYTOX Orange PA14 membrane disruption assay; conditions: 25 μM peptide, PA14 10^7 cfu/ml, 1 h at 35 °C, 5 μM SYTOX Orange; positive control 70% ethanol
[5] = Surface plasmon resonance on chip-supported Gram-positive model membrane; format: binding; conditions: highest N-104 concentration, PC:PG Gram-positive model membrane
[6] = test system: wild-type E. coli K-12; experiment: Alamar Blue viability assay of wild-type E. coli K-12; format: cell-based, Escherichia coli; conditions: 100 μM, wild-type E. coli K-12 10^6 cfu/ml, 37 °C, hourly, n = 3

## C[C@H](NC(=O)CNC(=O)[C@@H](NC(=O)[C@H](CO)NC(=O)[C@H](CC(=O)O)NC(=O)[C@H](CO)NC(=O)[C@H](CO)NC(=O)[C@H](C)NC(=O)[C@H](CC(=O)O)NC(=O)[C@@H](N)CCC(=O)O)[C@@H](C)O)C(=O)N[C@@H](CC(=O)O)C(=O)N1CCC[C@H]1C(=O)N[C@@H](C)C(=O)N[C@@H](CCC(N)=O)C(=O)N[C@@H](CCC(=O)O)C(=O)N[C@@H](C)C(=O)NCC(=O)N[C@H](C(=O)N[C@@H](CO)C(=O)N[C@@H](CCCCN)C(=O)N1CCC[C@H]1C(=O)N[C@@H](CC(N)=O)C(=O)N[C@@H](CCC(=O)O)C(=O)N[C@@H](CCC(=O)O)C(N)=O)[C@@H](C)O [C-95, reference compound] (H-EDASSDSTGADPAQEAGTSKPNEE-NH2)
[1]; 1 to 100 μM peptide
  effect on exogenous Fe^2+ uptake: had no effect

## CC(=O)N[C@@H](C)C(=O)N[C@@H](CCC(N)=O)C(=O)N[C@@H](CCCCN)C(=O)N[C@@H](CC(C)C)C(=O)N[C@@H](CC(C)C)C(=O)N[C@@H](CCCCN)C(=O)N[C@@H](CCCCN)C(=O)N[C@@H](Cc1ccccc1)C(=O)N[C@@H](CO)C(=O)N[C@@H](CC(C)C)C(=O)N[C@@H](CC(C)C)C(=O)N[C@@H](CCCCN)C(=O)N1CCC[C@H]1C(=O)N[C@@H](Cc1c[nH]c2ccccc12)C(=O)N[C@@H](C)C(=O)O [N-104] (Ac-AQKLLKKFSLLKPWA-OH)
[2]; 2-25 μM N-104, PC:PG:PE and PC:PG membranes
  membrane lysis or disruption concluded from SPR: not membrane lytic nor substantially membrane disruptive
[2]; highest N-104 concentration (25 μM), flow 30 μl/min, 600 s, n = 4
  SPR response after buffer wash versus baseline: remained slightly elevated over baseline
[1]; 1 h
  IC50: 10 µM
[3]
  effect on PA14 respiratory gene expression: promotes the expression of genes regulating anaerobic respiration while largely suppressing those involved in aerobic respiration
[4]
  membrane disruption (SYTOX Orange uptake): no SYTOX Orange uptake was observed
[5]
  SPR response after buffer wash versus baseline: slightly below baseline
[6]
  bacterial metabolic activity (Alamar Blue): inhibitory
